Source: ChEMBL document CHEMBL2203096, “Recent advances in hypoxia-inducible factor (HIF)-1 inhibitors” (Eur J Med Chem, 2012)
pEC50, pIC50: −log10 of the molar value. Blank lines part the entries; values can stand above or below the molecule they belong to.

Tests used:
[1] = Metabolic stability in rat Hepatocyte assessed as compound remaining at 1 umol/L after 2 hrs by RP-HPLC analysis; format: ADME, cell-based; conditions: hepatocytes, read-out: Stability
[2] = Metabolic stability in human Hepatocyte assessed as compound remaining at 1 umol/L after 2 hrs by RP-HPLC analysis; format: ADME, cell-based; conditions: hepatocytes, read-out: Stability
[3] = Apparent permeability across human Caco2 cells at 20 uM; format: ADME, cell-based; conditions: Caco-2
[4] = target: T1, Hypoxia-inducible factor 1-alpha (Homo sapiens, UniProt Q16665); assay: Inhibition of HIF-1alpha-mediated VEGF expression in human Hep3b cells by luciferase reporter gene assay; format: cell-based
[5] = target: T1, Hypoxia-inducible factor 1-alpha; assay: Inhibition of HIF-1alpha-mediated VEGF secretion in human Hep3b cells by ELISA; format: cell-based
[6] = target: T1, Hypoxia-inducible factor 1-alpha; assay: Inhibition of HIF-1alpha transcriptional co-activator p300 interaction
Nucleic Acid = assay: Binding affinity to HIF-1 5'-CGTG-3' DNA sequence in human U251 cells assessed as inhibition of HRE-mediated reporter activation; format: cell-based; conditions: u-251
[7] = Apparent permeability across human Caco2 cells at 10 uM; format: ADME, cell-based; conditions: Caco-2
[8] = target: T1, Hypoxia-inducible factor 1-alpha; assay: Inhibition of HIF-1alpha in human HCT116 cells under hypoxia condition by HRE-luciferase reporter gene assay; format: cell-based, HCT-116
[9] = target: T1, Hypoxia-inducible factor 1-alpha; assay: Inhibition of HIF-1alpha in human LN229 cells under hypoxia condition by HRE-luciferase reporter gene assay; format: cell-based
[10] = Antitumor activity against human […] cells xenografted in athymic nude mice assessed as reduction of tumor size at 20 mg/kg, qd; format: functional; parameters: scale not given: the % may be the effect or the level left
Mus musculus = assay: Toxicity in human HCT116 cells xenografted mouse assessed as decrease in body weight at 30 mg/kg, iv; format: organism-based, HCT-116; parameters: dose 30 mg/kg, route intravenous; scale not given: the % may be the effect or the level left; conditions: in vivo
[11] = Apparent permeability across human Caco2 cells at 5 uM; format: ADME, cell-based; conditions: Caco-2
HCT-116 = assay: Antitumor activity against human HCT116 cells xenografted in mouse assessed as inhibition of tumor growth at 30 mg/kg, iv; format: functional; conditions: read-out: TGI
[12] = Antitumor activity against human Hep3B cells xenografted in nude mouse assessed as reduction in tumor size at 10 to 30 mg/kg/day, ip for 2 weeks (reference value: 900 mm3); format: functional, Hep 3B2; conditions: route intraperitoneal
MDA-MB-435 = assay: Antitumor activity against human MDA-MB-435 cells xenografted in nude mouse assessed as inhibition of tumor growth at 20 to 50 mg/kg, qd for 5 weeks; format: functional; conditions: dose mg/kg 20-50

T1 sequence (Q16665 whole entry): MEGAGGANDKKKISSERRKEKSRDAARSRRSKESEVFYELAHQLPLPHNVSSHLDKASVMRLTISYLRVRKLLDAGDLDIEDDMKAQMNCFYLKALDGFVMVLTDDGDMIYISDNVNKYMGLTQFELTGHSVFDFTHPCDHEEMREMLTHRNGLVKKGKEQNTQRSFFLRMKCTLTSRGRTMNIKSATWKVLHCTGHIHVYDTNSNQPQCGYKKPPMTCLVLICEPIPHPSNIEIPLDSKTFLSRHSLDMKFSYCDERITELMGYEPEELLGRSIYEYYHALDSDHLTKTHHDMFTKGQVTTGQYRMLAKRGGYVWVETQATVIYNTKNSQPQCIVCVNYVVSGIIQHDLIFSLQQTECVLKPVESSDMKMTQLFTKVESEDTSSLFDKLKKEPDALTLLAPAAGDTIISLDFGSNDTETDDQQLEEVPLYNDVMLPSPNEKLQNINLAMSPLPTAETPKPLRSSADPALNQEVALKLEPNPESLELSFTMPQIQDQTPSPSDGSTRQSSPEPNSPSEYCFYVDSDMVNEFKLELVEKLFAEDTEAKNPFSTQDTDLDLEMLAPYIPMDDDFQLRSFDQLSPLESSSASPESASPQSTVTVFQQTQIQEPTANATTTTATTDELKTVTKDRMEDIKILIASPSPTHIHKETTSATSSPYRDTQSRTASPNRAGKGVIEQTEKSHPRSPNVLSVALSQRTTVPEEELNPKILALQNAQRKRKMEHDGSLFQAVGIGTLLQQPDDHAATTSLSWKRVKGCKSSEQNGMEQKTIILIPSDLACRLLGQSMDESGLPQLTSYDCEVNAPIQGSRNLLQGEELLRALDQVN

remaining at 2 h, 1 µM [1]: > 65%
remaining at 2 h, 1 µM [2]: > 65%
Structure (SMILES): COc1cc2c(cc1O)CC[C@@H]1[C@@H]2CC[C@]2(C)[C@@H](O)CC[C@@H]12 [2-METHOXYESTRADIOL]

Papp at 20 µM [3]: 0.6 ×10⁻⁶ cm/s
Structure (SMILES): CNC(=C[N+](=O)[O-])NCCSCc1ccc(CN(C)C)o1 [RANITIDINE]

pEC50 (Nucleic Acid): 8.92
Structure (SMILES): CS[C@H]1SC[C@H]2C(=O)N(C)[C@@H](C(C)C)C(=O)OC[C@@H](NC(=O)c3cnc4ccccc4n3)C(=O)N[C@@H](C)C(=O)N(C)[C@@H]1C(=O)N(C)[C@@H](C(C)C)C(=O)OC[C@@H](NC(=O)c1cnc3ccccc3n1)C(=O)N[C@@H](C)C(=O)N2C [ECHINOMYCIN]

remaining at 2 h, 1 µM [1]: > 65%
remaining at 2 h, 1 µM [2]: > 65%
Structure (SMILES): COc1cc2c(cc1C(N)=O)CC[C@@H]1[C@@H]2CC[C@]2(C)CCC[C@@H]12

Papp at 10 µM [7]: 27.2 ×10⁻⁶ cm/s
Structure (SMILES): COCCc1ccc(OCC(O)CNC(C)C)cc1 (centres undefined) [METOPROLOL]

pIC50 [8]: 8.52
Structure (SMILES): Cc1ccc(Cn2nc(-c3nc4ccc(-c5ccc(Cl)cc5)cc4[nH]3)cc2C)cc1

pIC50 [9]: 5.12
Structure (SMILES): COc1c(C(C2CCCCC2)n2cnc3c(Cl)cccc32)ccc2c1C=CC(C)(C)O2 (centres undefined)

Papp at 5 µM [11]: 22.9 ×10⁻⁶ cm/s
Structure (SMILES): O=C(COc1ccc(C23CC4CC(CC(C4)C2)C3)cc1)Nc1cc(C(=O)NCCCn2ccnc2)ccn1
Activity (Mus musculus): 92.7%
inhibition in vivo at 30 mg/kg (HCT-116): 51.3%

More lines, now with the values behind:

Structure (SMILES): CN1C(=O)[C@@]23C[C@]4([C@]56C[C@@]78SS[C@@](CO)(C(=O)N7[C@H]5Nc5ccccc56)N(C)C8=O)c5ccccc5N[C@@H]4N2C(=O)[C@]1(CO)SS3 [CHAETOCIN]
pIC50 [4]: 7.40
pIC50 [5]: 7.00
pIC50 [6]: 4.90

Structure (SMILES): COC(=O)c1ccc(O)c(NC(=O)COc2ccc(C34CC5CC(CC(C5)C3)C4)cc2)c1
Activity [10]: 53.6%

Structure (SMILES): OCc1ccc(-c2nn(Cc3ccccc3)c3ccccc23)o1
Activity [12]: 400 mm3

Structure (SMILES): Cn1c(CO)ccc1-c1nn(Cc2ccccc2)c2ccccc12
Activity [12]: 400 mm3

Structure (SMILES): COC(=O)c1ccc2[nH]c(COc3ccc(C45CC6CC(CC(C6)C4)C5)cc3)nc2c1
TGI (MDA-MB-435): 58.6%
